Literature values as cited in article PMC3991022, “Comparison of Functional Protein Transduction Domains Using the NEMO Binding Domain Peptide” (Pharmaceuticals, 2010).

Tested on: mouse model of collagen induced arthritis
Parameters: method as in PMID 15156202
Conditions: injection of NBD peptide

Sequence: TALDWSWLQTE [NBD peptide]
- amelioration of arthritis: significantly ameliorated the arthritis
